Experimental data from the supplement of paper PMC4862054.

Key:
Conditions in all cases: incubation time: 72 h
[1] = test system: BT-474; experiment: drug sensitivity score (DSS), CellTiter-Blue viability (DSS (AUC-based score)); higher = stronger viability inhibition; extreme values may be limits of the assay
Experimental: (§1)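 DSRT with the CellTiter-Blue (resazurin reduction) viability readout, fluorescence 560/590 nm, 72 h incubation. Plates were normalised to DMSO and benzethonium chloride controls. DSS is computed from the area under the fitted dose-response curve (5 or 9 concentrations).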

[2] = test system: CAL-148; experiment: as above
Experimental: as §1

[3] = test system: DU-4475; experiment: as above
Experimental: as §1

[4] = test system: MDA-MB-436; experiment: as above
Experimental: as §1

[5] = test system: CAL-51; experiment: as above
Experimental: as §1

[6] = test system: BT-549; experiment: as above
Experimental: as §1

[7] = test system: MDA-MB-231; experiment: as above
Experimental: as §1

[8] = test system: SK-BR-3; experiment: as above
Experimental: as §1

[9] = test system: HCC1937; experiment: normalised response (% of control), CellTiter-Glo; higher = more viable cells (100 = DMSO, 0 = benzethonium chloride kill control)
In short: (§2)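 Every value is a normalised signal taken at one concentration of a dilution series. Compound was placed in 384-well plates at 5 concentrations in 10-fold steps over a compound-specific 10,000-fold range, and 20 µl of breast cancer cell suspension was seeded onto it. After 72 h, CellTox Green fluorescence (485/520 nm) was measured first and CellTiter-Glo luminescence second, following 10 min at room temperature. Each plate was scaled to 0.1 % DMSO (100) and a positive kill control (0).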

[10] = test system: MDA-MB-453; experiment: as above
In short: as §2

[11] = test system: CAL-148; experiment: as above
In short: as §2

[12] = test system: HDQ-P1; experiment: as above
In short: as §2

[13] = test system: HCC1599; experiment: as above
In short: as §2

[14] = test system: MCF-10A; experiment: as above
In short: as §2

[15] = test system: DU-4475; experiment: as above
In short: as §2

[16] = test system: MDA-MB-436; experiment: as above
In short: as §2

[17] = test system: CAL-51; experiment: as above
In short: as §2

[18] = test system: MFM-223; experiment: as above
In short: as §2

[19] = test system: HCC1143; experiment: as above
In short: as §2

[20] = test system: MDA-MB-468; experiment: as above
In short: as §2

[21] = test system: Hs578T; experiment: as above
In short: as §2

[22] = test system: MDA-MB-231; experiment: as above
In short: as §2

[23] = test system: SK-BR-3; experiment: as above
In short: as §2

[24] = test system: CAL-85-1; experiment: as above
In short: as §2

Structure (SMILES)	drug sensitivity score [1]	drug sensitivity score [2]	drug sensitivity score [3]	drug sensitivity score [4]	drug sensitivity score [5]	drug sensitivity score [6]	drug sensitivity score [7]	drug sensitivity score [8]	normalised response [9] [%]	normalised response [10] [%]	normalised response [11] [%]	normalised response [12] [%]	normalised response [13] [%]	normalised response [14] [%]	normalised response [15] [%]	normalised response [16] [%]	normalised response [17] [%]	normalised response [18] [%]	normalised response [19] [%]	normalised response [20] [%]	normalised response [21] [%]	normalised response [22] [%]	normalised response [23] [%]	normalised response [24] [%]
CC(=O)c1c(C)c2cnc(Nc3ccc(N4CCNCC4)cn3)nc2n(C2CCCC2)c1=O	0	0	0	0	5.13	0	9.09	0																
Cn1cc(C2=Nc3cc(NC(=O)C(N)C4CCCCC4)cc4c3C2=CNNC4=O)cn1 (stereo not drawn) (1000 nM)									87	35.9	83.8	85.2	11.9	74.5	89	53.3	81.6	46.4	64.5	30.7	41.3	63.7	17.8	36.8
COc1cc2c(cc1O)CC[C@@H]1[C@@H]2CC[C@]2(C)[C@@H](O)CC[C@@H]12 [2-methoxyestradiol] (1000 nM)									89.6	72.7	96.4	99.9	96.6	96	98.5	74.2	92.9	75.3	82.5	95.1	77.3	73.9	83.2	77.6
Cc1sc2c(c1C)C(c1ccc(Cl)cc1)=N[C@@H](CC(=O)OC(C)(C)C)c1nnc(C)n1-2 [(+)JQ1] (1000 nM)									80.8	46.1	71.5	68.5	80	57.1	56.6	83.2	103	58.2	72.8	55.1	48.8	77.2	66.9	38.7
Oc1ncnc2[nH]ncc12 [Allopurinol]	0	0	0	0	0	0	0	0																
Oc1ncnc2[nH]ncc12 [Allopurinol] (1000 nM)									94.3	107	99.2	98.1	119	106	105	100	123	108	107	106	109	103	112	96.2
O=C1CN2Cc3c(ccc(Cl)c3Cl)N=C2N1 [Anagrelide] (1000 nM)									96.8	101	95	95.1	118	101	98	95.8	88.4	102	97.9	102	88.7	94.2	98.2	101
Nc1ncn([C@@H]2O[C@H](CO)[C@@H](O)[C@H]2O)c(=O)n1 [Azacitidine] (1000 nM)									90.9	96.8	96.2	96.4	84.9	110	90.5	79.1	119	96.7	99.5	39	102	97.4	91.7	106
O=NN(CCCl)C(=O)NCCCl [Carmustine]	0	0	0	0	0	0	0	0																
O=NN(CCCl)C(=O)NCCCl [Carmustine] (1000 nM)									99.8	102	91.3	101	101	98.3	98.9	101	121	97.6	100	96.8	102	97.8	96.2	97.5
CC1=C2C[C@H]3[C@@H](CC=C4C[C@@H](O)CC[C@@]43C)[C@@H]2CC[C@]12O[C@@H]1C[C@H](C)CN[C@H]1[C@H]2C [Cyclopamine]	0	0	0	0	0	0	0	0																
CC1=C2C[C@H]3[C@@H](CC=C4C[C@@H](O)CC[C@@]43C)[C@@H]2CC[C@]12O[C@@H]1C[C@H](C)CN[C@H]1[C@H]2C [Cyclopamine] (1000 nM)									98.5	108	105	103	108	106	99.5	101	68	110	105	105	111	112	111	106
CC(=O)O[C@@]12CO[C@@H]1C[C@H](O)[C@@]1(C)C(=O)[C@H](O)C3=C(C)[C@@H](OC(=O)[C@H](O)[C@@H](NC(=O)OC(C)(C)C)c4ccccc4)C[C@@](O)([C@@H](OC(=O)c4ccccc4)[C@H]21)C3(C)C [Docetaxel] (100 nM)									68.3	45.3	36.6	67.1	28.5	41.5	34.7	31.6	27.4	40	31.5	36.6	13	28.7	10.1	28.1
C[C@]12CC[C@@H]3c4ccc(OC(=O)N(CCCl)CCCl)cc4CC[C@H]3[C@@H]1CC[C@@H]2O [Estramustine]	0	0	0	0	0	0	0	0																
CC1(C)CNc2cc(NC(=O)c3cccnc3NCc3ccncc3)ccc21 [Motesanib] (1000 nM)									101	101	86.4	96.6	98.1	96.9	98.4	103	85.7	91	93.6	91.5	96.4	89.1	80.6	93.5
C[C@]1(O)C[C@@H](c2nc(-c3ccc4ccc(-c5ccccc5)nc4c3)c3c(N)nccn32)C1 [OSI-906]	1.46	0	0	0	1.03	3.58	0	6.92																
CC[C@@H]1C(=O)OC[C@@H]1Cc1cncn1C [Pilocarpine]	0	0	0	0	0	0	0	0																
CC[C@@H]1C(=O)OC[C@@H]1Cc1cncn1C [Pilocarpine] (4000 nM)									92.6	98.9	91.6	92	92.7	93.8	97	91.5	96.8	94.1	92.2	91.8	105	97.4	92.4	102
COc1cc(F)c(F)c(Nc2ccc(I)cc2F)c1NS(=O)(=O)C1(C[C@H](O)CO)CC1 [RDEA119]	0	0	28.1	0	6.65	0	18.7	0																
CC(C)(C)c1cnc(CSc2cnc(NC(=O)C3CCNCC3)s2)o1 [SNS-032] (1000 nM)									26.1	25.5	53.8	20.8	7.69	14.3	6.57	17.6	9.15	18.9	12.1	5.83	13	7.43	3.47	6.5
Cn1cnc2c(F)c(Nc3ccc(Br)cc3Cl)c(C(=O)NOCCO)cc21 [Selumetinib] (1000 nM)									84.7	106	79.4	63.8	93.9	37.6	4.56	90.7	110	92.2	85.1	87.8	93.4	72.5	86.8	107
Nc1nc2[nH]cnc2c(=S)[nH]1 [Thioguanine] (1000 nM)									59.9	94.3	93.4	66.1	82	99.8	88.5	83.8	91.9	93.7	99.1	95.7	78.3	50.7	95.4	70.3
